The numbers were not newly measured in patent US8524751B2, “4-oxadiazol-2-YL-indazoles as inhibitors of P13 kinases” (priority 2009, dated 2013), which cites them from elsewhere.

pIC50: −log10 of the molar value. Read-outs that look alike come from different tables or passages of the source.

One data set has as its system Class I PI3-kinases. Conditions: each of the Class I PI3-kinases.

What is called pIC50 is −log10 of the IC50, conventionally taken in molar units. For the compound `O=c1cc(N2CCOCC2)oc2c(-c3ccccc3)cccc12` [LY294002], the pIC50 was 4.70 to 4.82 in the data set with Class I PI3-kinases (Fruman et al. 1998, read-out: IC50 values against each of these PI3-kinases) and 5.00 to 5.30 on CK2 protein kinase.

In the case of `COC[C@H]1OC(=O)c2coc3c2[C@@]1(C)C1=C(C3=O)[C@@H]2CCC(=O)[C@@]2(C)C[C@H]1OC(C)=O` [wortmannin], the pIC50 with Class I PI3-kinases (read-out: IC50 values against each of the various Class I PI3-kinases) was 8.00 to 9.00.
